According to patent publication US10799442B2, “Compounds useful in the treatment and/or care of the skin, hair, nails, and/or mucous membranes” (LUBRIZOL ADVANCED MATERIALS, INC., priority 2015, dated 2020):

Assays:
Assay type in all cases: cell-based
human miRNA145 = test: miRNA145 inhibition on Human Keratinocyte HaCaT cell line, direct quantification by luminescence; conditions: HaCaT cells, 0.3 mg/ml, 24 hours, normalized with Snord48; mean of 3 experiments for DD14024, one experiment for the others
Procedure: The synthetic peptide candidates are evaluated for the inhibition of human miRNA145 expression level using a direct miRNA145 quantification assay based on luminescence detection in a Human Keratinocyte HaCaT cell line.
HaCat cells (Deutsches Krebsforschungszentrum) are seeded at 3.0×10^4 cells/well in 96-clear wells plates and incubated in a culture medium [(DMEM High Glucose with L-Glutamine (Lonza), supplemented with 10% Fetal Bovine Serum (Cultek)] for 24 hours at 37° C. in a water-saturated atmosphere of 95% air and 5% CO2. Then, the cells with the candidates added at 0.3 mg/ml in the culture medium are treated for 24 hours at 37° C., 95% air and 5% CO2. Cells with culture medium only are treated to the same conditions to provide basal conditions. Each cell culture condition is assayed at least in 6 biological replicates. At the end of the incubation period, the cells are lysed and the relative miRNA145 expression level is quantified by a specific assay kit (QuantiGene™ 2.0 miRNA Assay Kit) following manufacturer's instructions (Affymetrix). Briefly, to capture miRNA145, culture lysates are incubated overnight at 46±1° C. in 96-white well plates with the miRNA145 specific probe set (Capture extenders and Label extenders). As an endogenous expression control, the housekeeping Snord48 is quantified using a specific probe set. Next day, the signal amplification tree is built via sequential hybridization at 46±1° C. of three probes: PreAmplifier, Amplifier and Alkaline Phosphatase Label Probe. Then, the signal is detected by adding a chemiluminescent substrate and using a Microplate Luminometer Reader (Clariostar-BMG LabTech).
The miRNA145 expression level result is normalized with the Snord48 expression level for each cell culture condition and the relative decrease in the miRNA145 expression level is calculated respect to basal control (cells treated with culture medium only). The values represent the mean of 3 independent experiments for DD14024, and for the other candidates, represent the result of one experiment.

Keratin 10 = test: Keratin expression in reconstructed human epidermal tissue (RHE), immunohistochemistry (Keratin 10); conditions: Keratin 10 immunofluorescence, 10 μg/ml, 48 hours
Description: (§1) The human epidermis continuously renews itself by a process of proliferation and differentiation of keratinocytes. Basal epidermal stem cells proliferate and the differentiation process begins above the basal layer, whereby the differentiating keratinocytes slowly move outward from the basal membrane, migrate through the epidermis, and undergo terminal differentiation culminating in fully differentiated dead cells on the surface. The process is a dynamic flux so that surface cells are continuously sloughed and replaced by inner cells differentiating and moving outward. […] To study the ability of the peptides of the invention to recover the basal keratinocyte state, the expression of Keratins 10 and 14 is evaluated by immunohistochemistry in a three-dimensional culture system, Reconstructed Human Epidermal Tissue (RHE), that reproduces in vitro the histological organization of human epidermis in situ. […]
(§2) The expression of Keratins 10 and 14 is evaluated by immunohistochemistry with a specific primary antibody and a fluorescently labelled secondary antibody. […] At the end of the incubation, slides are washed with 0.2% solution of Tween 20 in PBS and are incubated with Alexa Fluor® 488 Goat anti-mouse IgG (H+L) secondary antibody (Invitrogen, green fluorescence emission dye) for 1 hour at room temperature in a dark humidified chamber. […]

Keratin 14 = test: Keratin expression in reconstructed human epidermal tissue (RHE), immunohistochemistry (Keratin 14); conditions: Keratin 14 immunofluorescence, 10 μg/ml, 48 hours
Description: as §1, §2

Ac-QEMRMQ-OH [DD14024, Ac-Gln-Glu-Met-Arg-Met-Gln-OH]
Relative level of miRNA145 respect to basal control (%) (human miRNA145): 85.06 ± 6.35%
Fold induction respect to basal conditions (%) (Keratin 10): 28.70%
Fold induction respect to basal conditions (%) (Keratin 14): 425.83%
